Data taken from patent publication US20260365655A1, “NEW USE OF JANUS KINASE (JAK)-DEGRADING AGENT BASED ON PROTEOLYSIS TARGETING CHIMERA (PROTAC)” (SHANGHAI SKIN DISEASE HOSPITAL, priority 2022, published 2026).
Where “and” joins values, the source holds several entries; their conditions need not be identical. Equal values may be shown once.

Experiments:
[1] = system: mouse ear eczema model (atopic dermatitis); test: Mouse ear eczema model (calcipotriol-induced): SCORAD of skin damage and overall therapeutic effect; type: in vivo, BALB/c mice; settings: 0.15% cream for external use; result is for model group relative to the treated groups
Excerpt: (§1) (1) Preparation method of a JAK-PROTAC cream: the same as in Example 1.
(§2) (2) Positive therapeutic drug: a 0.050% dexamethasone acetate cream (manufacturer: Shanghai Skin Disease Hospital).
(§3) (3) Blank matrix: a matrix component produced after the active ingredient JAK-PROTAC was removed from the cream.
(§4) (4) Molding agent: solution of calcipotriol in ethanol (manufacturer: MACKLIN).
(§5) (1) The mice were randomly divided into a blank control group (6 mice) (Control), a model group (6 mice) (Model), a positive drug group (6 mice) (Positive), a Compound 1-treating group (0.15% JAK-PROTAC cream 1 for external use) (6 mice) (Treat 1), and a Compound 2-treating group (0.15% JAK-PROTAC cream 2 for external use) (6 mice) (Treat 2).
(2) Molding was conducted in the following manner: […]
(1) The photographing was conducted every day. The severity of skin damage in an ear application region was evaluated through SCORAD for mice. […] Each symptom was scored as 0 to 3 depending on the severity of a skin damage: asymptomatic: 0, mild: 1, moderate: 2, and severe: 3. […]

[2] = system: mouse ear eczema model (ear thickness); test: Mouse ear eczema model: ear thickness; type: in vivo, BALB/c mice; settings: for Ear thickness, mean value: group mean; for Ear thickness: individual mice, two ears; for Ear thickness difference among Compound 1-, Compound 2-treating and positive drug groups / Ear thickness of model group versus treated groups: after the modeling; for Ear thickness of model group versus treated groups: result is for model group relative to the treated groups
Excerpt: as §1, §2, §3, §4, §5
(2) Molding was conducted in the following manner:
(§6) A. On day 0 to day 7 of the modeling: At 9 a.m., the blank control group was administered with the cream matrix, the model group was administered with the molding agent, the positive group was administered with the molding agent, the Compound 1-treating group was administered with the molding agent, and the Compound 2-treating group was administered with the molding agent. At 5 p.m., the blank control group was not treated, the model group was administered with the cream matrix, the positive group was administered with the dexamethasone acetate cream, the Compound 1-treating group was administered with the JAK-PROTAC cream 1, and the Compound 2-treating group was administered with the JAK-PROTAC cream 2.
as §6, with “B.” for “A.”, “8” for “0”, “10” for “7”, “modeling, at” for “modeling: At”, “not treated,” for “administered with the molding agent,”, “not treated.” for “administered with the molding agent.”
C. On day 11 of the modeling: At 9 a.m., the blank control group was administered with the cream matrix, the model group was not treated, the positive group was not treated, the Compound 1-treating group was not treated, and the Compound 2-treating group was not treated. At 1 p.m., the mice were sacrificed through cervical dislocation, and the spleen and two ears of each mouse were collected.
(2) A body weight and thicknesses of two ears of each mouse were recorded daily.
The data of the present disclosure was processed with the Excel and GraphPad software. The experimental data was tested by one-way ANOVA. The post-hoc multiple comparison was conducted with the least significant difference (LSD). P<0.05 indicated a significant difference.

[3] = HaCaT cell viability by CCK-8 assay; type: cell-based; settings: human, hacat cells
Protocol: (1) Reagents: compound 1: a compound shown by Compound 1 in Formula (I); compound 2: a compound shown by Compound 2 in Formula (I); Dulbecco's Modified Eagle Medium (DMEM) high-glucose medium: Wuhan Pricella Biotechnology Co., Ltd.; South American fetal bovine serum (FBS) and trypsin: Gibco, USA; penicillin-streptomycin: Hyclone, USA; and CCK-8 kit: Beyotime.
(2) Instruments: CO2 incubator: HERA cell 240; and microplate reader: Thermo Fisher Scientific, USA.
The cultured HaCaT cells were counted under a microscope to be about 2×10^6 cells/mL, then inoculated in a 96-well plate at about 6×10^3 cells/well, and incubated overnight in a 37 °C and 5% CO2 incubator. After cells were adherent, a medium was removed, and 200 μL of each of complete media including compounds 1 and 2 at different concentrations (0.05 μg/mL, 0.1 μg/mL, 0.2 μg/mL, 0.5 μg/mL, 1 μg/mL, 2 μg/mL, 5 μg/mL, 10 μg/mL, and 20 μg/mL) was added to a corresponding well. The 0 μg/mL group was set as a blank control group. Three replicate wells were set for each treatment of the compounds 1 and 2. The plate was incubated in a CO2 incubator for 24 h. 20 μL of CCK-8 reagent was added to each well, and the plate was incubated in a CO2 incubator for 1 h and then placed in the microplate reader to read the absorbance at 450 nm. The test was repeated 3 times, and a mean value was taken. The measured absorbance was substituted into a cell viability calculation formula to calculate the cell viability.
The data of the present disclosure was processed with the Excel and Graphpad software. The experimental data was tested by one-way ANOVA. The post-hoc multiple comparison was conducted with the LSD. P<0.05 indicated a significant difference.

[4] = Day0, cream for external use (JAK-PROTAC 0.15%, dexamethasone acetate 0.050%)
[5] = Day0 of modeling, cream for external use (JAK-PROTAC 0.15%, dexamethasone acetate 0.050%)

## N#CC[C@H](C1CCCC1)n1cc(-c2nc(Nc3ccc(C(=O)NCCCCNc4cccc5c4C(=O)N(C4CCC(=O)NC4=O)C5=O)cc3)nc3[nH]ccc23)cn1 (stereo partly drawn) [Compound 1]
[1]
  Erythema, scale, and infiltration scores and total scores (SCORAD) of model group versus treated groups: significantly higher than the respective scores in the Compound 1- and Compound 2-treating groups (P<0.05)
[2]; [4]
  Ear thickness, mean value: 0.24 mm
[2]; [5]
  Ear thickness: 0.23 mm (2×) and 0.24 mm (3×) and 0.26 mm and 0.25 mm (2×)
[2]; Day 1
  Ear thickness, mean value: 0.27 mm
  Ear thickness: 0.26 mm (5×) and 0.29 mm and 0.28 mm and 0.27 mm
[2]; Day2
  Ear thickness, mean value: 0.28 mm
  Ear thickness: 0.30 mm (3×) and 0.27 mm (3×) and 0.28 mm and 0.24 mm
[2]; Day3
  Ear thickness, mean value: 0.28 mm
  Ear thickness: 0.30 mm and 0.31 mm and 0.26 mm and 0.28 mm and 0.27 mm (2×) and 0.29 mm and 0.24 mm
[2]; Day4
  Ear thickness, mean value: 0.28 mm
  Ear thickness: 0.27 mm (2×) and 0.33 mm and 0.31 mm and 0.30 mm and 0.25 mm (2×) and 0.28 mm
[2]; Day5
  Ear thickness, mean value: 0.29 mm
  Ear thickness: 0.32 mm (3×) and 0.29 mm and 0.28 mm (2×) and 0.30 mm and 0.24 mm
[2]; Day6
  Ear thickness, mean value: 0.32 mm
  Ear thickness: 0.34 mm and 0.35 mm (2×) and 0.36 mm and 0.31 mm and 0.30 mm and 0.25 mm and 0.33 mm
[2]; Day7
  Ear thickness, mean value: 0.33 mm
  Ear thickness: 0.33 mm (2×) and 0.32 mm and 0.37 mm and 0.35 mm and 0.36 mm and 0.26 mm and 0.34 mm
[2]; Day8
  Ear thickness, mean value: 0.32 mm
  Ear thickness: 0.30 mm and 0.33 mm and 0.32 mm (2×) and 0.35 mm and 0.37 mm and 0.24 mm and 0.34 mm
[2]
  Ear thickness difference among Compound 1-, Compound 2-treating and positive drug groups: no significant difference among the Compound 1- and Compound 2-treating groups and the positive drug group (P>0.05)
  Ear thickness of model group versus treated groups: significantly larger than ear thicknesses of the Compound 1- and Compound 2-treating groups, the positive drug group, and the blank control group (P<0.05)
[3]; 0.05 μg/mL
  viability at 24 h: 80.5%
[3]; 0.10 μg/mL
  viability at 24 h: 85.7%
[3]; 0.20 μg/mL
  viability at 24 h: 90.7%
[3]; 0.50 μg/mL
  viability at 24 h: 98.3%
[3]; 1.00 μg/mL
  viability at 24 h: 98.3%
[3]; 2.00 μg/mL
  viability at 24 h: 93.8%
[3]; 5.00 μg/mL
  viability at 24 h: 108%
[3]; 10.00 μg/mL
  viability at 24 h: 110%
[3]; 20.00 μg/mL
  viability at 24 h: 80.3%

## CCS(=O)(=O)N1CC(CC#N)(n2cc(-c3nc(Nc4ccc(C(=O)NCCCCNc5cccc6c5C(=O)N(C5CCC(=O)NC5=O)C6=O)cc4)nc4[nH]ccc34)cn2)C1 (stereo not drawn) [Compound 2]
[1]
  Erythema, scale, and infiltration scores and total scores (SCORAD) of model group versus treated groups: significantly higher than the respective scores in the Compound 1- and Compound 2-treating groups (P<0.05)
[2]; [4]
  Ear thickness, mean value: 0.22 mm
[2]; [5]
  Ear thickness: 0.22 mm (3×) and 0.24 mm (2×) and 0.21 mm (3×)
[2]; Day 1
  Ear thickness, mean value: 0.26 mm
  Ear thickness: 0.28 mm and 0.29 mm and 0.24 mm (2×) and 0.25 mm (3×) and 0.26 mm
[2]; Day2
  Ear thickness, mean value: 0.25 mm
  Ear thickness: 0.23 mm (3×) and 0.29 mm and 0.21 mm and 0.26 mm (2×) and 0.25 mm
[2]; Day3
  Ear thickness, mean value: 0.26 mm
  Ear thickness: 0.26 mm (5×) and 0.27 mm and 0.24 mm and 0.25 mm
[2]; Day4
  Ear thickness, mean value: 0.27 mm
  Ear thickness: 0.29 mm and 0.27 mm and 0.26 mm (2×) and 0.28 mm (2×) and 0.25 mm and 0.24 mm
[2]; Day5
  Ear thickness, mean value: 0.29 mm
  Ear thickness: 0.29 mm (3×) and 0.30 mm (2×) and 0.28 mm and 0.31 mm and 0.26 mm
[2]; Day6
  Ear thickness, mean value: 0.32 mm
  Ear thickness: 0.32 mm (2×) and 0.33 mm (2×) and 0.31 mm (2×) and 0.30 mm (2×)
[2]; Day7
  Ear thickness, mean value: 0.35 mm
  Ear thickness: 0.34 mm (2×) and 0.36 mm (5×) and 0.35 mm
[2]; Day8
  Ear thickness, mean value: 0.35 mm
  Ear thickness: 0.34 mm (4×) and 0.36 mm (2×) and 0.39 mm and 0.33 mm
[2]
  Ear thickness difference among Compound 1-, Compound 2-treating and positive drug groups: no significant difference among the Compound 1- and Compound 2-treating groups and the positive drug group (P>0.05)
  Ear thickness of model group versus treated groups: significantly larger than ear thicknesses of the Compound 1- and Compound 2-treating groups, the positive drug group, and the blank control group (P<0.05)
[3]; 0.05 μg/mL
  viability at 24 h: 95.5%
[3]; 0.10 μg/mL
  viability at 24 h: 95.6%
[3]; 0.20 μg/mL
  viability at 24 h: 106%
[3]; 0.50 μg/mL
  viability at 24 h: 113%
[3]; 1.00 μg/mL
  viability at 24 h: 101%
[3]; 2.00 μg/mL
  viability at 24 h: 107%
[3]; 5.00 μg/mL
  viability at 24 h: 124%
[3]; 10.00 μg/mL
  viability at 24 h: 120%
[3]; 20.00 μg/mL
  viability at 24 h: 93.3%
